One data set deals with E. coli. The format is cell-based, Escherichia coli (wild type W2110). As to conditions: 18 h. The procedure:
(§1) Two Gram-negative bacterial strains, namely Escherichia coli (wild type W2110) and Pseudomonas aeruginosa (wild type PK01) and Gram-positive strain, […] (ATCC 29213) were obtained from the Department of Biotechnology and Bioinformatics at Korea University.
(§2) The broth microdilution assay was used to test the antimicrobial activity of AMPs, as previously reported. Briefly, bacteria were grown to mid-logarithmic growth phase in Mueller Hinton Broth (MHB) media at 37 °C. Then, in 96-well plates, 50 µL of peptide solution (0–320 µM) diluted using a 2-fold serial dilution method was mixed with an equal volume of bacterial solution (3 × 10^6 CFU/mL) and incubated for 18 h at 37 °C with shaking at 200 rpm. The negative control was the culture medium itself. […] The assay was performed in triplicate.

Data set [1] relates to sheep red blood cells (RBCs). The data set can be described thus: Hemolytic activity assay. The format is cell-based. As to conditions: at 77.5 μM (free peptides: up to 77.5 μM); 37 °C, 1 h, A570, 100% = 1% Triton X-100; N = 3. The procedure: Free peptides and silica particles loaded with them (AMP@Si) were compared for their cytotoxicity against mouse macrophages (Raw264.7 cells) and their hemolytic activity against RBCs. Free AMP or AMP@Si was added to each well of a 96-well plate in 2-fold serial dilutions to 50 μL with DMEM medium containing 10% FBS and 1% antibiotics. Raw264.7 macrophages at a concentration of 4 × 10^4 cells per 50 μL were added to the wells containing the peptide to give a final volume of 100 μL. Cell proliferation was confirmed by MTS assay (Promega, Madison, WI, USA) after 24 h or 5 days of incubation. The MTS tetrazolium compound was reduced by viable cells to generate a colored formazan product. […] To calculate cell viability, the absorbance of cells treated with the peptide was divided by the absorbance of cells that were not treated with the peptide. The resulting quotient was then expressed as a percentage. […] The supernatant (100 μL) was collected after centrifugation at 1000× g for 5 min, and the absorbance (A) was measured at 570 nm. The value of “zero hemolysis” was determined by the absorbance of PBS alone, and 100% hemolysis was determined by the absorbance of the supernatant obtained from 1% (v/v) Triton X-100-treated RBCs. The percentage of hemolysis was calculated as hemolysis (%) = (AAMP − APBS)/(ATriton − APBS) × 100. […]

In data set [2] the test system is S. aureus. The format is cell-based, Staphylococcus aureus (ATCC 29213). The settings on record: 18 h. The procedure:
as §1, §2

The test system of another data set is P. aeruginosa. The class given is cell-based, Pseudomonas aeruginosa (wild type PK01). As to conditions: 18 h. The procedure: as §1, §2
Data set [3] relates to P. aeruginosa (after trypsin treatment of AMP). In words: Residual antibacterial activity after trypsin treatment. As to conditions: 300 μM in 1× PBS, 0.025% trypsin, 37 °C, 3 min, stopped with FBS; overnight culture, OD600; N = 3. The procedure:
(§3) The absorbance value of the bacteria in the absence of AMP was used as the negative control. The absorbance value of the bacteria grown in the presence of trypsinized AMP was subtracted from that of the negative control, and the resulting difference was expressed as a percentage fraction of the negative control, yielding the residual antibacterial activity of AMP after trypsin treatment (Figure 6a).
(§4) Free AMP or AMP@Si was dissolved in 1 × PBS at a concentration of 300 μM and left at 37 °C for 3 min in the presence of 0.025% trypsin, followed by the addition of fetal bovine serum (FBS) to stop the activity of trypsin. Bacteria were incubated overnight with each trypsinized peptide formula, and broth absorbance was measured at 600 nm. As a negative control, the absorbance of the strain grown in the absence of the peptide was set. To determine the remaining antimicrobial activity of AMP after treatment of trypsin, the absorbance of the sample treated with AMP was subtracted from the absorbance of the negative control. The resulting difference was then expressed as a percentage of the absorbance of the negative control.
(§5) (a) The residual antibacterial activity was calculated by taking the difference in optical density at 600 nm between the negative control and the sample containing the trypsinized AMP. It was then divided by the optical density of the negative control and multiplied by 100. Each bacterial solution grown in a medium without AMP is used as a corresponding negative control. […] The image is a 10,000× magnification, the inside image is a 20,000× magnification, and the scale bar represents 1 µm.

Data set [4] has as its system S. aureus (after trypsin treatment of AMP). The description is as above. As to conditions: 300 μM in 1× PBS, 0.025% trypsin, 37 °C, 3 min, stopped with FBS; overnight culture, OD600; N = 3. The procedure:
as §3, §4, §5

Data set [5] deals with E. coli (after trypsin treatment of AMP). Described as above. The settings on record: 300 μM in 1× PBS, 0.025% trypsin, 37 °C, 3 min, stopped with FBS; overnight culture, OD600; N = 3. The procedure: as §3, §4, §5
A further data set deals with Raw264.7 cells. In words: Cytotoxicity, MTS assay. The class given is cell-based, mouse. The settings on record: for Cell viability: 24 h, MTS, N = 3. The procedure: Free peptides and silica particles loaded with them (AMP@Si) were compared for their cytotoxicity against mouse macrophages (Raw264.7 cells) and their hemolytic activity against RBCs. Free AMP or AMP@Si was added to each well of a 96-well plate in 2-fold serial dilutions to 50 μL with DMEM medium containing 10% FBS and 1% antibiotics. Raw264.7 macrophages at a concentration of 4 × 10^4 cells per 50 μL were added to the wells containing the peptide to give a final volume of 100 μL. Cell proliferation was confirmed by MTS assay (Promega, Madison, WI, USA) after 24 h or 5 days of incubation. The MTS tetrazolium compound was reduced by viable cells to generate a colored formazan product. The intensity of the color at 490 nm is proportional to the number of viable cells in the sample. To calculate cell viability, the absorbance of cells treated with the peptide was divided by the absorbance of cells that were not treated with the peptide. The resulting quotient was then expressed as a percentage. […] The supernatant (100 μL) was collected after centrifugation at 1000× g for 5 min, and the absorbance (A) was measured at 570 nm. The value of “zero hemolysis” was determined by the absorbance of PBS alone, and 100% hemolysis was determined by the absorbance of the supernatant obtained from 1% (v/v) Triton X-100-treated RBCs. The percentage of hemolysis was calculated as hemolysis (%) = (AAMP − APBS)/(ATriton − APBS) × 100.
Figure 7 The hemolytic activity and cytotoxicity of AMPs. […] (b) The cytotoxicity of AMP was measured 24 h after the addition of each indicated concentration of AMP to Raw264.7 cells grown overnight. Cell survival is expressed as a percentage of the negative control grown without AMP.
Figure S4. […] The cytotoxicity of AMP was measured 5 days after incubation of Raw 264.7 cells (4 x 10^5 cells/ mL) in the presence of each indicated concentration of AMP Cell survival was expressed as a percentage of the negative control grown without AMP. […]
In general terms: Formazan colour is commonly taken as a measure of viable cells.

Data set [6] has as its system S. aureus. Further details: method as in PMID 33236626. As to conditions: cited from earlier work.
Where [7] appears, read: free peptide, MHB, 2-fold dilution 0–320 µM, 37 °C, OD600, mean ± standard error of three replicate experiments.

Like-named read-outs stand apart in the source and are kept apart here. Marks after values point to notes of the source that are not given here. A value given as a limit tells only on which side of the number the result lay.

For the compound `CC(=O)N[C@@H](CCCNC(=N)N)C(=O)N[C@@H](CCCCN)C(=O)N[C@@H](CCCCN)C(=O)N[C@@H](CCCNC(=N)N)C(=O)N[C@@H](CCCNC(=N)N)C(=O)N[C@@H](CCC(N)=O)C(=O)N[C@@H](CCCNC(=N)N)C(=O)N[C@@H](CCCNC(=N)N)C(=O)N[C@@H](CCCNC(=N)N)C(N)=O`, the entrapment efficiency (EE) turned out to be 95%.

For the compound “Ac-KRIVQRIKDFLR-NH2 [KR12, reference compound]”, the “Minimum inhibitory concentration (MIC)” value in the data set on E. coli is listed as 103.36 ± 25.82 µM; in the data set with S. aureus [2], >320 ^a µM; with P. aeruginosa, 181.98 ± 68.20 µM. The Hemolysis entry in data set [1] was “less than 1%”.

“Ac-RKKRRQRRRGSSKRIVQRIKDFLR-NH2 [CPP-KR12]”: the entrapment efficiency (EE) was 95%. For the same compound, the “Residual antibacterial activity after trypsin treatment” value (“Residual antibacterial activity” for short) in [3] is given as “approximately 15%”. Besides, in [4], the “Residual antibacterial activity” value is listed as “approximately 15%”. Also, in data set [5], the “Residual antibacterial activity” value is reported as “approximately 10%”. Besides, the “Minimum inhibitory concentration (MIC)” value with E. coli (setting [7]) is 12.09 ± 4.97 µM. The Hemolysis result in data set [1] is “less than 1%”. Besides, the Cytotoxicity entry with Raw264.7 cells (6 µM) is “not cytotoxic”. The same compound yielded a Cell viability in the data set on Raw264.7 cells (19.38 μM) of 80%. Further, the Cell viability in the data set with Raw264.7 cells (77.5 μM) is 10%. Besides, in the data set with S. aureus [2] (setting [7]), the “Minimum inhibitory concentration (MIC)” value is reported as 22.80 ± 8.48 µM. Also, in the data set on P. aeruginosa (setting [7]), the “Minimum inhibitory concentration (MIC)” value stood at 6.12 ± 3.72 µM.

With “YGRKKRRQRRKRIVQRIKDFLR [TAT-KR-12, literature peptide developed for treatment of intracellular S. aureus infection]”, the “Antibacterial activity against S. aureus” value in the data set with S. aureus [6] was “enhanced antibacterial activity”.

These data come from paper PMC10671715, “Self-Entrapment of Antimicrobial Peptides in Silica Particles for Stable and Effective Antimicrobial Peptide Delivery System” (International Journal of Molecular Sciences, 2023).
